Molecular target: T1, MEK (Homo sapiens, UniProt Q02750)
T1 construct: no tag is given for the 2D mutant
Test: in vitro MEK assay
Type: biochemical
Details: @ 1 μM
Description: For evaluation of direct MEK activity, 10 μg GST-MEK, is incubated in the presence of absence of test compound with 5 μg of a glutathione S-transferase fusion protein containing p44MAP kinase with a lysine to alanine mutation at position 71 (GST-MAPK-KA). This mutation eliminates kinase activity of MAPK, so only kinase activity attributed to the added MEK remains. Incubations are 15 minutes at 30° C. in a final volume of 50 μL containing 50 mM Tris (pH 7.5), […], 2, μM EGTA, and 10 μM [γ-^32P]ATP. The reaction is stopped by addition of Laemmli SDS sample buffer. Phosphorylated GST-MAPK-KA is resolved by electrophoresis on a 10% polyacrylamide gel. Radioactivity incorporated into GST-MAPK-KA is determined by autoradiography, and subsequent scintillation counting of excised bands.
Alternatively, an artificially activated MEK containing serine to glutamate mutations at positions 218 and 222 (GST-MEK-2E) is used. When these two sites are phosphorylated, MEK activity is increased. Phosphorylation of these sites can be mimicked by mutation of the serine residues to glutamate. For this assay, 5 μg GST-MEK-2E is incubated with 5 μg GST-MAPK-KA for 15 minutes at 30° C. in the same reaction buffer as described above. Reactions are terminated and analyzed as above.

T1 sequence (Q02750 whole entry S218D/S222D, form open): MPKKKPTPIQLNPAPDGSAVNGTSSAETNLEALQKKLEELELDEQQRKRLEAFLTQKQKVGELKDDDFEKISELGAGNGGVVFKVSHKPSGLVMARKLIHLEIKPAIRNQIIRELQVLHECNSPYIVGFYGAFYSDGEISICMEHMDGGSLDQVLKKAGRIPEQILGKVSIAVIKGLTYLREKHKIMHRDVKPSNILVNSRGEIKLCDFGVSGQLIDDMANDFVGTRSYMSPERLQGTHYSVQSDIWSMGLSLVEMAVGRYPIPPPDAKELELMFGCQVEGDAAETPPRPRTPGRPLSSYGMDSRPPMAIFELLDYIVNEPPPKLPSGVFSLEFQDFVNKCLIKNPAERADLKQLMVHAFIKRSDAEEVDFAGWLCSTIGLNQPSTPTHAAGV

Row | in vitro MEK assay: % inhibition @ 1 μM [%] | SMILES
1 | 60 | Cc1cc(I)ccc1N1COC(=O)c2cc(C(=O)Nc3cc[nH]n3)c(F)c(F)c21 [Example 36, 7,8-Difluoro-1-(4-iodo-2-methyl-phenyl)-4-oxo-1,4-dihydro-2H-3,1-benzoxazine-6-carboxylic acid (1H-pyrazol-3-yl)-amide]
2 | 20 | Cc1cc(I)ccc1N1COC(=O)c2cc(C(=O)Nc3cccnc3)c(F)c(F)c21 [Example 37, 7,8-Difluoro-1-(4-iodo-2-methyl-phenyl)-4-oxo-1,4-dihydro-2H-3,1-benzoxazine-6-carboxylic acid pyridin-3-ylamide]
3 | 48 | Cc1cc(I)ccc1N1COC(=O)c2cc(C(=O)N3CCCC(O)C3)c(F)c(F)c21 (stereo not drawn) [Example 38, 7,8-Difluoro-6-(3-hydroxy-piperidine-1-carbonyl)-1-(4-iodo-2-methyl-phenyl)-1,2-dihydro-3,1-benzoxazin-4-one]
4 | 71 | Cc1cc(I)ccc1N1COC(=O)c2cc(C(=O)N3CCCC(CO)C3)c(F)c(F)c21 (stereo not drawn) [Example 39, 7,8-Difluoro-6-(3-hydroxymethyl-piperidine-1-carbonyl)-1-(4-iodo-2-methyl-phenyl)-1,2-dihydro-3,1-benzoxazin-4-one]
5 | 42 | Cc1cc(I)ccc1N1COC(=O)c2cc(C(=O)N3CCC(O)C3)c(F)c(F)c21 (stereo not drawn) [Example 40, 7,8-Difluoro-6-(3-hydroxy-pyrrolidine-1-carbonyl)-1-(4-iodo-2-methyl-phenyl)-1,2-dihydro-3,1-benzoxazin-4-one]
6 | 7 | Cc1cc(I)ccc1N1COC(=O)c2cc(C(=O)N3CCC(N4CCCC4)CC3)c(F)c(F)c21 [Example 41]
7 | 15 | Cc1cc(I)ccc1N1COC(=O)c2cc(C(=O)NCCN3CCOCC3)c(F)c(F)c21 [Example 42, 7,8-Difluoro-1-(4-iodo-2-methyl-phenyl)-4-oxo-1,4-dihydro-2H-3,1-benzoxazine-6-carboxylic acid (2-morpholin-4yl-ethyl)-amide]
8 | 52 | Cc1cc(I)ccc1N1COC(=O)c2cc(C(=O)N3CCC(O)CC3)c(F)c(F)c21 [Example 43, 7,8-Difluoro-6-(4-hydroxy-piperidine-1-carbonyl)1-(4-iodo-2-methyl-phenyl)-1,2-dihydro-3,1-benzoxazin-4-one]
9 | 69 | Cc1cc(I)ccc1N1COC(=O)c2cc(C(=O)N3CCC(CCO)CC3)c(F)c(F)c21 [Example 44, 7,8-Difluoro-6-[4-(2-hydroxy-ethyl)-piperidine-1-carbonyl]-1-(4-iodo-2-methyl-phenyl)-1,2-dihydro-3,1-benzoxazin-4-one]
10 | 62 | Cc1cc(I)ccc1N1COC(=O)c2cc(C(=O)Nc3ccc(Cl)nc3)c(F)c(F)c21 [Example 45]
11 | 43 | COc1ccc(NC(=O)c2cc3c(c(F)c2F)N(c2ccc(I)cc2C)COC3=O)cn1 [Example 46, 7,8-Difluoro-1-(4-iodo-2-methyl-phenyl)-4-oxo-1,4-dihydro-2H-3,1-benzoxazine-6-carboxylic acid (6-methoxy-pyridin-3-yl)amide]
12 | 0 | COc1ccc2[nH]cc(CCNC(=O)c3cc4c(c(F)c3F)N(c3ccc(I)cc3C)COC4=O)c2c1 [Example 47, 7,8-Difluoro-1-(4-iodo-2-methyl-2-phenyl)-4-oxo-1,4-dihydro-2H-3,1-benzoxazine-6-carboxylic acid [2-(5-methoxy-1H-indol-3-yl)ethyl]-amide]
13 | 12 | COc1ccc2c(CCNC(=O)c3cc4c(c(F)c3F)N(c3ccc(I)cc3C)COC4=O)c[nH]c2c1 [Example 48, 7,8-Difluoro-1-(4-iodo-2-methyl-phenyl)-4-oxo-1,4-dihydro-2H-3,1-benzoxazine-6-carboxylic acid [2-(6-methoxy-1H-indol-3-yl)-ethyl]-amide]
14 | 50 | Cc1cc(I)ccc1N1COC(=O)c2cc(C(=O)N(CCO)CCO)c(F)c(F)c21 [Example 49, 7,8-Difluoro-1-(4-iodo-2-methyl-phenyl)-4-oxo-1,4-dihydro-2H-3,1-benzoxazine-6-carboxylic acid bis-(2-hydroxy-ethyl)-amide]
15 | 44 | Cc1cc(I)ccc1N1COC(=O)c2cc(C(=O)NCCc3c[nH]cn3)c(F)c(F)c21 [Example 50, 7,8-Difluoro-1-(4-iodo-2-methyl-phenyl)4-oxo-1,4-dihydro-2H-3,1-benzoxazine-6-carboxylic acid [2-(1H-imidazol4-yl)-ethyl]-amide]
16 | 72 | Cc1cc(I)ccc1N1COC(=O)c2cc(C(=O)N3CCOCC3)c(F)c(F)c21 [Example 51, 7,8-Difluoro-1-(4-iodo-2-methyl-phenyl)-6-(morpholine-4-carbonyl)-1,2-dihydro-3,1-benzoxazin-4-one]
17 | 35 | Cc1cc(I)ccc1N1COC(=O)c2cc(C(=O)NCCCn3ccnc3)c(F)c(F)c21 [Example 52, 7,8-Difluoro-1-(4-iodo-2-methyl-phenyl)-4-oxo-1,4-dihydro-2H-3,1-benzoxazine-6-carboxylic acid (3-imidazol-1-yl-propyl)amide]
18 | 61 | Cc1cc(I)ccc1N1COC(=O)c2cc(C(=O)Nc3ccc(N(C)C)cc3)c(F)c(F)c21 [Example 53, 7,8-Difluoro-1-(4-iodo-2-methyl-phenyl)-4-oxo-1,4-dihydro-2H-3,1-benzoxazine-6-carboxylic acid (4-dimethylamino-phenyl)amide]
19 | 56 | CCN1CCN(C(=O)c2cc3c(c(F)c2F)N(c2ccc(I)cc2C)COC3=O)CC1 [Example 54, 6-(4-Ethyl-piperazine-1-carbonyl)-7,8-difluoro-1-(4-iodo-2-methyl-phenyl)-1,2-dihydro-3,1-benzoxazin-4-one]
20 | 41 | Cc1cc(I)ccc1N1COC(=O)c2cc(C(=O)N(C)CCc3c[nH]c4ccccc34)c(F)c(F)c21 [Example 55, 7,8-Difluoro-1-(4-iodo-2-methyl-phenyl)-4-oxo-1,4-dihydro-2H-3,1-benzoxazine-6-carboxylic acid [2-(1H-indol-3-yl)ethyl]-methyl-amide]
21 | 1 | Cc1cc(I)ccc1N1COC(=O)c2cc(C(=O)N3CCNCC3)c(F)c(F)c21 [Example 56, 7,8-Difluoro-1-(4-iodo-2-methyl-phenyl)-6-(piperazine-1-carbonyl)-1,2-dihydro-3,1-benzoxazin-4-one]
22 | 35 | Cc1cc(I)ccc1N1COC(=O)c2cc(C(=O)NCC3CCCO3)c(F)c(F)c21 (stereo not drawn) [Example 57, 7,8-Difluoro-1-(4-iodo-2-methyl-phenyl)4-oxo-1,4-dihydro-2H-3,1-benzoxazine-6-carboxylic acid (tetrahydro-furan-2-ylmethyl)-amide]
23 | 76 | Cc1cc(I)ccc1N1COC(=O)c2cc(C(=O)N3CCSC3)c(F)c(F)c21 [Example 58, 7,8-Difluoro-1-(4-iodo-2-methyl-phenyl)-6-(thiazolidine-3-carbonyl)-1,2-dihydro-3,1-benzoxzin-4-one]
24 | 75 | Cc1cc(I)ccc1N1COC(=O)c2cc(C(=O)N3CCSCC3)c(F)c(F)c21 [Example 59, 7,8-Difluoro-1-(4-iodo-2-methyl-phenyl)-6-(thiomorpholine-4-carbonyl)-1,2-dihydro-3,1-benzoxzin-4-one]

— patent US7001905B2, “Substituted diarylamines as MEK inhibitors” (Warner-Lambert Company, priority 2000, dated 2006)
